From patent US11731965B2, “Tetrahydroprotoberberine compound, preparation method therefor and uses thereof, and pharmaceutical composition” (SHANGHAI INSTITUTE OF MATERIA MEDICA, CHINESE ACADEMY OF …, priority 2017, dated 2023)
Counter-ions that a name gives are not always drawn.

Experiments:
[1] = molecular target: T1, human recombinant D2 receptor (Homo sapiens, UniProt P14416); test: D2 antagonistic activity test (LANCE cAMP, antagonism of dopamine inhibition of cAMP production in HEK293 cells); assay type: cell-based; conditions: HEK293 cells expressing human recombinant D2 receptor; test concentration 0.1 nM to 10000 nM; read-out: D2 Antagonistic Activity (IC50, nmol/L)
T1 construct: expressed in transfected cells; host or cells: HEK293
Experimental: LANCE™ cAMP 384 Kit (PerkinElmer, USA) was used to test the antagonism of the compound against the D1 receptor using the HEK293 cells expressing human recombinant D1 receptor. The D1 antagonism of the compound was evaluated by testing the antagonistic action of the compounds against dopamine on the induction of cAMP production in HEK293 cells. The cAMP concentration test was performed according to the method described in the kit instructions. The test concentration of the compound was 0.1 nM to 10000 nM. SCH23390 was used as a positive control. The IC50 was calculated by Excelfit software. The test results of some compounds were shown in Table 1. • 2) D2 antagonistic activity test LANCE™ cAMP 384 Kit (PerkinElmer, USA) was used to test the antagonism of the compound against the D2 receptor using the HEK293 cells expressing human recombinant D2 receptor. The D2 antagonism of the compound was evaluated by testing the antagonistic action of the compounds against dopamine on the inhibition of cAMP production in HEK293 cells. The cAMP concentration test was performed according to the method described in the kit instructions. The test concentration of the compound was 0.1 nM to 10000 nM. Risperidone was used as a positive control. The IC50 was calculated by Excelfit software. The test results of some compounds were shown in Table 1 (ND means the test was not performed).

[2] = molecular target: T2, human recombinant D1 receptor (Homo sapiens, UniProt P21728); test: D1 antagonistic activity test (LANCE cAMP, antagonism of dopamine-induced cAMP production in HEK293 cells); assay type: cell-based; conditions: HEK293 cells expressing human recombinant D1 receptor; test concentration 0.1 nM to 10000 nM; read-out: D1 Antagonistic Activity (IC50, nmol/L)
T2 construct: expressed in transfected cells; host or cells: HEK293
Experimental: • 1) D1 antagonistic activity test
The D1 antagonism of the compound was evaluated by testing the antagonistic action of the compounds against dopamine on the induction of cAMP production in HEK293 cells. The cAMP concentration test was performed according to the method described in the kit instructions. The test concentration of the compound was 0.1 nM to 10000 nM. SCH23390 was used as a positive control. The IC50 was calculated by Excelfit software.

[3] = tested on: PCP-induced high spontaneous activity in mice; test: PCP-induced high spontaneous activity test in mice; assay type: in vivo, Male ICR mice; conditions: dose by gavage that significantly reduces PCP (7 mg/kg ip) induced high spontaneous activity of mice vs model group
Experimental: PCP (phencylidine) was dissolved in physiological saline to prepare a 7 mg/kg solution. The test compound was formulated with a 0.5% CMC-Na solution to a solution with suitable concentration, ready-to-use. Male ICR mice were 18-22 g. Mice were randomly divided into a solvent control group, a model control group, a positive control group, and each test drug group during the test. There were 8 mice in each group. Mice in each group were given each test drug by gavage. 45 minutes after the test drug was administered, mice were injected with a PCP (7 mg/kg) solution intraperitoneally. The spontaneous, open field video analysis system was used to record the mouse movement trajectory within 45 min after administration of test drug or saline, and then the mouse movement trajectory within 75 min after PCP administration. Spontaneous, open field video analysis system was used to analyze the mouse's movement trajectory, and the total distance of the movement of the mice in each group was counted. The result was expressed as mean±SD. Results were analyzed by one-way analysis of variance.

T1 sequence (P14416 whole entry): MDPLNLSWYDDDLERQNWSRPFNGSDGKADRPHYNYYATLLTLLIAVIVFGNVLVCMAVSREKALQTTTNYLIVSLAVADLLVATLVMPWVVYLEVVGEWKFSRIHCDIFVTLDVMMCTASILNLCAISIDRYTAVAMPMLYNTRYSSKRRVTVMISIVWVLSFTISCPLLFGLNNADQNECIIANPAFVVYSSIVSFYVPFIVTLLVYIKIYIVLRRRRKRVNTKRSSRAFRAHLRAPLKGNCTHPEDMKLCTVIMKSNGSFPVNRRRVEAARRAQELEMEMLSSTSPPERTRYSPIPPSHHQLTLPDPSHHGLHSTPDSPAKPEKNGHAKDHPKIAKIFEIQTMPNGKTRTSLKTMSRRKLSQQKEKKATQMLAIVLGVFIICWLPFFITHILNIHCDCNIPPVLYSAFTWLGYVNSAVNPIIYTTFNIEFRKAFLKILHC
T2 sequence (P21728 whole entry): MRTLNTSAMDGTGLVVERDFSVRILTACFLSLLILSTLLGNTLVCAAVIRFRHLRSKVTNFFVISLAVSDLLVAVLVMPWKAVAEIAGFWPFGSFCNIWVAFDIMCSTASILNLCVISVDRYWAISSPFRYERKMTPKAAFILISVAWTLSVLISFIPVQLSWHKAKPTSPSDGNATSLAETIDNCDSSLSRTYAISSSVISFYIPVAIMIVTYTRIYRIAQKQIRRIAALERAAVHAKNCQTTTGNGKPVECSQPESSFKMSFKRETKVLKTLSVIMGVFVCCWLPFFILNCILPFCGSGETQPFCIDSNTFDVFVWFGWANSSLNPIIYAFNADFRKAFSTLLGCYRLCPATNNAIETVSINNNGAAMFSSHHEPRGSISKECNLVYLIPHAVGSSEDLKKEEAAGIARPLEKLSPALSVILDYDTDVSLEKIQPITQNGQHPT

| IC50 [1] | IC50 [2] | SMILES | Effective Dose [3] |
| --- | --- | --- | --- |
| 210 nmol/L | 49 nmol/L | COc1cc2c(cc1C=O)[C@@H]1Cc3ccc(OC)c(OC)c3CN1CC2 [Example 6, (S)-2-formyl-3,9,10-trimethoxy-6,8,13,13a-tetrahydro-5H-dibenzo[a,g] quinolizine] |  |
| 770 nmol/L | 61 nmol/L | COc1cc2c(cc1CO)[C@@H]1Cc3ccc(OC)c(OC)c3CN1CC2 [Example 7, (S)-2-hydroxymethyl-3,9,10-trimethoxy-6,8,13,13a-tetrahydro-5H-dibenzo[a,g] quinolizine] | 10 mg/kg |
|  | 1300 nmol/L | COc1cc2c(cc1OC)[C@@H]1Cc3ccc(OC)c(C=O)c3CN1CC2 [Example 24, (S)-2,3,10-trimethoxy-9-formyl-6,8,13,13a-tetrahydro-5H-dibenzo [a,g] quinolizine] |  |
| 2300 nmol/L | 1700 nmol/L | COc1cc2c(cc1OC)[C@@H]1Cc3ccc(OC)c(CO)c3CN1CC2 [Example 25, (S)-2,3,10-trimethoxy-9-hydroxymethyl-6,8,13,13a-tetrahydro-5H-dibenzo[a,g] quinolizine] | 20 mg/kg |
|  | 2160 nmol/L | COc1cc2c(cc1OC)[C@@H]1Cc3ccc(C(N)=O)c(OC)c3CN1CC2 [Example 28, (S)-2,3,9-trimethoxy-10-carbamoyl-6,8,13,13a-tetrahydro-5H-dibenzo[a,g] quinolizine] |  |
| 510 nmol/L | 1080 nmol/L | COc1cc2c(cc1OC)[C@@H]1Cc3ccc(CO)c(OC)c3CN1CC2 [Example 30, (S)-2,3,9-trimethoxy-10-hydroxymethyl-6,8,13,13a-tetrahydro-5H-dibenzo[a,g] quinolizine] |  |
| 427 nmol/L | 26.2 nmol/L | COc1ccc2c(c1OC)CN1CCc3cc4c(cc3C1C2)C(=O)NC4=O (stereo not drawn) [Example 36, 9,10-dimethoxy-5,6,13,13a-tetrahydroisoquinolino[3,2-a]pyrrolo [3,4-g]isoquinoline-1,3(2H,8H)-dione] | 10 mg/kg |
| 20 nmol/L |  | COc1ccc2c(c1OC)CN1CCc3cc(OC)c4[nH]c(=S)[nH]c4c3[C@@H]1C2 [Example 41, (S)-4,10,11-trimethoxy-3,6,7,9,14,14a-Hexahydroimidazo[4,5-h] isoquinolino [3,2-a]isoquinoline-2(1H)-thione] | 3 mg/kg |
|  | 219 nmol/L | COc1ccc2c(c1OC)CN1CCc3ccc4oc(=O)[nH]c4c3C1C2 (stereo not drawn) [Example 49, 10,11-Dimethoxy-6,7,14,14a-tetrahydro-1H-isoquinolino[3,2-a] oxazolo[5,4-h] isoquinoline-2 (9H)-one] | 10 mg/kg |
|  | 855 nmol/L | COc1ccc2c(c1OC)CN1CCc3ccc4c(c3C1C2)NC(=O)CO4 (stereo not drawn) [Example 50, 11,12-Dimethoxy-3,7,8,10,15,15a-hexahydroisoquinolino[3,2-a][1,4] oxazino [2,3-h]isoquinoline-2(1H)-one] | 10 mg/kg |
| 390 nmol/L |  | COc1cc2c(cc1OC(F)F)[C@@H]1Cc3ccc(OC)c(OC)c3CN1CC2 [Example 51, (S)-2-(difluoromethoxy)-3,9,10-trimethoxy-6,8,13,13a-tetrahydro-5H-dibenzo[a,g] quinolizine] |  |
|  | 443 nmol/L | COc1cc2c(cc1OCCO)[C@@H]1Cc3ccc(OCCO)c(OC)c3CN1CC2 [Example 55, (S)-2,10-di(hydroxyethoxy)-3,9-dimethoxy-6,8,13,13a-tetrahydro-5H-dibenzo [a,g] quinolizine] |  |

The next lines start with the molecule.

| SMILES | IC50 [1] | IC50 [2] | Effective Dose [3] |
| --- | --- | --- | --- |
| COc1cc2c(cc1C)[C@@H]1Cc3ccc(OC)c(OC)c3CN1CC2 [Example 1, (S)-2-methyl-3,9,10-trimethoxy-6,8,13,13a-tetrahydro-5H-dibenzo[a,g] quinolizine] | 620 nmol/L | 34.9 nmol/L | 20 mg/kg |
| CCCc1cc2c(cc1OC)CCN1Cc3c(ccc(OC)c3OC)C[C@@H]21 [Example 2, (S)-2-n-propyl-3,9,10-trimethoxy-6,8,13,13a-tetrahydro-5H-dibenzo [a,g] quinolizine] | 280 nmol/L |  | 20 mg/kg |
| COc1cc2c(cc1C#N)[C@@H]1Cc3ccc(OC)c(OC)c3CN1CC2 [Example 4, (S)-2-cyano-3,9,10-trimethoxy-6,8,13,13a-tetrahydro-5H-dibenzo [a,g] quinolizine] | 950 nmol/L | 310 nmol/L |  |
| COc1cc2c(cc1N)[C@@H]1Cc3ccc(OC)c(OC)c3CN1CC2 [Example 13, (S)-2-amino-3,9,10-trimethoxy-6,8,13,13a-tetrahydro-5H-dibenzo [a,g] quinolizine hydrochloride] | 280 nmol/L | 140 nmol/L | 10 mg/kg |
| COc1cc2c(cc1Br)[C@@H]1Cc3ccc(OC)c(OC)c3CN1CC2 [Example 15, (S)-2-bromo-3,9,10-tritmethoxy-6,8,13,13a-tetrahydro-5H-dibenzo [a,g] quinolizine] | 550 nmol/L | 120 nmol/L |  |
| C=Cc1cc2c(cc1OC)CCN1Cc3c(ccc(OC)c3OC)C[C@@H]21 [Example 17, (S)-2-vinyl-3,9,10-trimethoxy-6,8,13,13a-tetrahydro-5H-dibenzo [a,g] quinolizine] | 150 nmol/L | 240 nmol/L | 20 mg/kg |
| COc1cc2c(cc1CCO)[C@@H]1Cc3ccc(OC)c(OC)c3CN1CC2 [Example 18, (S)-2-hydroxyethyl-3,9,10-trimethoxy-6,8,13,13a-tetrahydro-5H-dibenzo[a,g] quinolizine] | 610 nmol/L | 390 nmol/L | 20 mg/kg |
| COc1cc2c(cc1OC)[C@@H]1Cc3ccc(OC)c(C#N)c3CN1CC2 [Example 19, (S)-2,3,10-trimethoxy-9-cyano-6,8,13,13a-tetrahydro-5H-dibenzo [a,g] quinolizine] |  | 1300 nmol/L | 20 mg/kg |
| COc1cc2c(cc1OC)[C@@H]1Cc3ccc(C)c(OC)c3CN1CC2 [Example 26, (S)-2,3,9-trimethoxy-10-methyl-6,8,13,13a-tetrahydro-5H-dibenzo [a,g] quinolizine] | 940 nmol/L |  |  |
| COc1cc2c(cc1OC)[C@@H]1Cc3ccc(C=O)c(OC)c3CN1CC2 [Example 29, (S)-2,3,9-trimethoxy-10-formyl-6,8,13,13a-tetrahydro-5H-dibenzo [a,g] quinolizine] | 2500 nmol/L |  |  |
| COc1cc2c(cc1OC)[C@@H]1Cc3ccc(CNC(C)=O)c(OC)c3CN1CC2 [Example 32, (S)-2,3,9-trimethoxy-10-acetaminomethyl-6,8,13,13a-tetrahydro-5H-dibenzo[a,g] quinolizine] | 663 nmol/L |  |  |
| COc1cc2c(cc1N)[C@@H]1Cc3ccc(N)c(OC)c3CN1CC2 [Example 33, (S)-2,10-diamino-3,9-dimethoxy-6,8,13,13a-tetrahydro-5H-dibenzo [a,g] quinolizine] | 440 nmol/L | 270 nmol/L | 20 mg/kg |
| COc1cc2c(cc1NC(C)=O)[C@@H]1Cc3ccc(NC(C)=O)c(OC)c3CN1CC2 [Example 34, (S)-2,10-di(acetamino)-3,9-dimethoxy-6,8,13,13a-tetrahydro-5H-dibenzo[a,g] quinolizine] |  |  | 20 mg/kg |
| COc1ccc2c(c1OC)CN1CCc3cc(OC)c4nn[nH]c4c3[C@@H]1C2 [Example 43, (S)-4,10,11-trimethoxy-1,6,7,9,14,14a-hexahydroisoquinolino[3,2-a] [1,2,3]triazolo[4,5-h]isoquinoline] | 54 nmol/L |  |  |
| COc1ccc2c(c1OC)CN1CCc3cc4nc[nH]c4cc3C1C2 (stereo not drawn) [Example 44, 9,10-Dimethoxy-1,5,6,8,13,13a-hexahydroimidazo[4,5-g]isoquinolino [3,2-a]isoquinoline] | 139 nmol/L | 672 nmol/L |  |
| COc1ccc2c(c1OC)CN1CCc3cc4ncoc4cc3C1C2 (stereo not drawn) [Example 45, 9,10-Dimethoxy-6,8,13,13a-tetrahydro-5H-isoquinolino[3,2-a] oxazolo[4,5-g]isoquinoline] |  | 116 nmol/L |  |
